Legend:
[1] = system: H358; test: Anti-proliferation 2D CTG test (H358); assay type: cell-based; settings: H358 cells, 1500 cells/well, 5 days incubation with compound, CTG readout
Outline: (§1)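 H358 (1500 cells/well) and MIA PaCa-2 (500 cells/well) seeded overnight, then treated 5 days at 37 °C with 10-point 1:3 dilutions, top final […], 0.5% DMSO. Viability by CellTiter-Glo luminescence; IC50 from four-parameter fit normalized to plate controls.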

[2] = system: MIA PaCa-2; test: Anti-proliferation 2D CTG test (MIA PaCa-2); assay type: cell-based; settings: MIAPACA-2 cells, 500 cells/well, 5 days incubation with compound, CTG readout
Outline: as §1

Structure (SMILES)	IC50 [1]	IC50 [2]	IC50 ([1]; Homo sapiens, NCI-H358, 120 h)	IC50 ([2]; Homo sapiens, MIA PaCa-2, 120 h)
C=CC(=O)N1C[C@H](C)N(c2nc(=O)n3c4nc(c(F)cc24)-c2c(ccc(Cl)c2F)OCC(OCC)C(O)c2ccnc(C(C)C)c2-3)C[C@H]1C (stereo partly drawn) [Example 71, 2^4-((2S,5R)-4-acryloyl-2,5-dimethylpiperazin-1-yl)-3^5-chloro-6-ethoxy-2^6,3^6-difluoro-7-hydroxy-1^2-isopropyl-2^1,2^2-dihydro-4-oxa-2(1,7)-pyrido[2,3-d]pyrimidina-1(3,4)-pyridina-3(1,2)-benzocycloheptane-2^2-one]	8 nM	3 nM		
C=CC(=O)N1CCN(c2nc(=O)n3c4nc(c(F)cc24)-c2c(ccc(Cl)c2F)OCC(O)C(OCC)c2ccnc(C(C)C)c2-3)[C@@H](C)C1 (stereo partly drawn) [Example 72, (R)-2^4-((S)-4-acryloyl-2-methylpiperazin-1-yl)-3^5-chloro-7-ethoxy-2^6,3^6-difluoro-6-hydroxy-1^2-isopropyl-2^1,2^2-dihydro-4-oxa-2(1,7)-pyrido[2,3-d]pyrimidina-1(3,4)-pyridina-3(1,2)-benzocycloheptane-2^2-one]	7 nM	6 nM		
C=CC(=O)N1CCN(c2nc(=O)n3c4nc(c(F)cc24)-c2c(ccc(Cl)c2F)OCC(OCC)C(O)c2ccnc(C(C)C)c2-3)[C@@H](C)C1 (stereo partly drawn) [Example 75, (R)-2^4-((S)-4-acryloyl-2-methylpiperazin-1-yl)-3^5-chloro-6-ethoxy-2^6,3^6-difluoro-7-hydroxy-1^2-isopropyl-2^1,2^2-dihydro-4-oxa-2(1,7)-pyrido[2,3-d]pyrimidina-1(3,4)-pyridina-3(1,2)-benzocycloheptane-2^2-one]	3 nM	6 nM		

Results, then the compound that gave them:

IC50 [1]	IC50 [2]	IC50 ([1]; Homo sapiens, NCI-H358, 120 h)	IC50 ([2]; Homo sapiens, MIA PaCa-2, 120 h)	Structure (SMILES)
4 nM	4 nM			C=CC(=O)N1C[C@H](C)N(c2nc(=O)n3c4nc(c(F)cc24)-c2c(ccc(Cl)c2F)OCC(O)C(OCC)c2ccnc(C(C)C)c2-3)C[C@H]1C (stereo partly drawn) [Example 76, (R)-2^4-((2S,5R)-4-acryloyl-2,5-dimethylpiperazin-1-yl)-3^5-chloro-7-ethoxy-2^6,3^6-difluoro-6-hydroxy-1^2-isopropyl-2^1,2^2-dihydro-4-oxa-2(1,7)-pyrido[2,3-d]pyrimidina-1(3,4)-pyridina-3(1,2)-benzocycloheptane-2^2-one]
5 nM	3 nM			C=CC(=O)N1C[C@H](C)N(c2nc(=O)n3c4nc(c(F)cc24)-c2c(ccc(Cl)c2F)OCC(OCC)C(O)c2ccnc(C(C)C)c2-3)C[C@H]1C (stereo partly drawn) [Example 78, (R)-2^4-((2S,5R)-4-acryloyl-2,5-dimethylpiperazin-1-yl)-3^5-chloro-6-ethoxy-2^6,3^6-difluoro-7-hydroxy-1^2-isopropyl-2^1,2^2-dihydro-4-oxa-2(1,7)-pyrido[2,3-d]pyrimidina-1(3,4)-pyridina-3(1,2)-benzocycloheptane-2^2-one]
		8 nM	11 nM	C=CC(=O)N1CCN(c2nc(=O)n3c4nc(c(F)cc24)-c2c(F)cccc2OCCCc2ccnc(C(C)C)c2-3)[C@@H](C)C1 [Positive compound, reference compound]

From patent US20240101573A1, “MACROCYCLIC K-RAS G12C INHIBITOR, PREPARATION METHOD THEREFOR AND USE THEREOF” (Abbisko Therapeutics Co., Ltd., priority 2020, published 2024)
